Laboratory results: patent US8557862B2, “Synergistic antimicrobial composition” (Dow Global Technologies LLC, priority 2009, dated 2013)

Test system: oil field isolated anaerobic SRB consortium
Experiment: Biocidal efficacy (MBC for complete bacteria kill) against sulfate reducing bacteria
Type: cell-based, Sulfate Reducing Bacteria (SRB)
Settings: minimum tested biocide concentration for complete bacteria kill, alone or in the blend, 40° C., 24 hour, anaerobic salt solution, 10^6 to 10^7 CFU/mL
Method: Inside an anaerobic chamber (BACTRON III), a deaerated sterile salt solution (3.1183 g of NaCl, […] of NaHCO3, 47.70 mg of KCl, 72.00 mg of CaCl2, 54.49 mg of MgSO4, 172.28 mg of Na2SO4, 43.92 mg of Na2CO3 in 1 L water) was contaminated with an oil field isolated anaerobic SRB consortium at final bacterial concentrations of 10^6 to 10^7 CFU/mL. The aliquots of this contaminated water were then treated with glutaraldehyde and DXN, or the glutaraldehyde/DXN combination at different active concentration levels. After the mixtures were incubated at 40° C. for 24 hour, the biocidal efficacy was determined by minimum tested biocide concentration for complete bacteria kill in the aliquots (MBC). Table 1 summarizes the efficacy of each biocide and their blends, and the Synergy Index* of each combination.

SMILES: CC(=O)OC1CC(C)OC(C)O1 (centres unmarked) [0:1, 2,6-dimethyl-1,3-dioxan-4-yl acetate]
- MBC (active ppm) DXN (DXN concentration): 333.33 active ppm

SMILES: O=CCCCC=O [1:0, glutaraldehyde]
- MBC (active ppm) glut (glutaraldehyde concentration): 2.63 active ppm
